Assay results from patent US6291527A (priority 1998, dated 2001).
Where a name gives a salt, the structure may show the parent alone.

Experiments:
[1] = test system: prostaglandin E2 (PGE2); assay: foreign body (sponge) method in the rat: PGE2 in the inflammatory exudate (immunoenzymatic assay); assay type: in vivo; conditions: for PGE2 concentration in the inflammatory exudate / % inhibition versus controls of PGE2: oral, 8 hours, listed as KGS; for PGE2 concentration in the inflammatory exudate: mean, controls 98.7 ± 4.7
Experimental: (§1) These tests involved the use of 100 male CD strain rats (Charles River, Calco, LC, Italy) weighing 180±8 g. The animals were fasted for 12 hours (water ad libitum) before being used for the experiment.
(§2) The inflammatory reaction with the formation of exudate was induced by using sterilized polyester sponges (4×1.5×0.5 cm) soaked in carrageen dissolved at a 2% concentration in sterile physiological solution. The rats were anesthetized lightly with ether and two sponges per rat were implanted subcutaneously in a previously shaven dorsal area.
(§3) The sponges were removed 8 hours later after having sacrificed the animals by ether euthanasia, and immediately placed in large polyethylene 50 ml test tubes containing 10 ml of heparinized physiological solution. The test tubes were then subjected to centrifugation (1000 rotations; 15 minutes), followed by removal of the sponges and accurate measurement of the volume of the remaining fluid. Always using the Higgs et al. method, the acid lipids present in the fluid were extracted in chloroform with prior dilution in ethanol and acidification to pH 3. After complete evaporation of the chloroform, the remaining dry residue was dissolved in physiological solution and used for the immunoenzymatic assay of prostaglandin E2 (PGE2).
(§4) All the other reagents used for the tests were purchased from Merck-Bracco (Milan, Italy).

[2] = test system: inflammatory exudate (IE); assay: foreign body (sponge) method in the rat: inflammatory exudate volume; assay type: in vivo; conditions: for IE (inflammatory exudate) volume / % inhibition versus controls of IE: oral, 8 hours, listed as KGS; for IE (inflammatory exudate) volume: mean ± MSE, controls 5.15 ± 0.28
Experimental: as §1, §2, §3, §4

[3] = test system: carrageen edema; assay: carrageen edema test in the rat (hind paw volume, plethysmometer); conditions: for evolution of paw volume (delta in ml) at 1st hour / evolution of paw volume (delta in ml) at 2nd hour / evolution of paw volume (delta in ml) at 3rd hour / evolution of paw volume (delta in ml) at 4th hour / evolution of paw volume (delta in ml) at 5th hour / evolution of paw volume (delta in ml) at 6th hour: mean ± MSE; for % inhibition vs controls (paw edema AUC): p < 0.001; for AUC (mean ± MSE) of increase in paw volume: paw volume (delta in ml) vs time (0 to 6 hours), controls 4.23 ± 0.26
[4] = animal studies of the three salts vs Ketoprofen acid and Ketoprofen sodium salt: distribution and kinetics; assay type: in vivo, experimental animals
From the text: The three above mentioned Ketoprofen salts were compared with Ketoprofen acid and Ketoprofen sodium salt in animal studies.

[5] = rat, 0.5, 1, 2 and 4 mg/kg per os
[6] = rat, oral, 1 mg/kg, listed as KGS
[7] = rat, oral, 2 mg/kg, listed as KGS

CC(C(=O)O)c1cccc(C(=O)c2ccccc2)c1 (stereo not shown) [Ketoprofen Glucosamine salt]
ED50 ([1]; Rattus norvegicus, po, 8 h, rat, 95% confidence limits KGS 1.848-2.131, KLS 2.215-3.005): 1.99 mg/kg
inhibition of PGE2 activity in exudates [1, 5]: singificant inhibition of PGE2 activity
PGE2 concentration in the inflammatory exudate ([1]; rat, 0.5 mg/kg): 67.6 ng/mL
% inhibition versus controls of PGE2 ([1]; rat, 0.5 mg/kg): 31.5%
PGE2 concentration in the inflammatory exudate ([1]; rat, 1 mg/kg): 60.5 ng/mL
% inhibition versus controls of PGE2 ([1]; rat, 1 mg/kg): 38.7%
PGE2 concentration in the inflammatory exudate ([1]; rat, 2 mg/kg): 49.9 ng/mL
% inhibition versus controls of PGE2 ([1]; rat, 2 mg/kg): 49.4%
PGE2 concentration in the inflammatory exudate ([1]; rat, 4 mg/kg): 24.9 ng/mL
% inhibition versus controls of PGE2 ([1]; rat, 4 mg/kg): 74.8%
ED50 ([2]; Rattus norvegicus, po, 8 h, rat, 95% confidence limits KGS 1.802-2.381, KLS 2.334-3.094): 2.09 mg/kg
control of the inflammatory response to sponge implantation [2, 5]: controls the vasculo-exudative inflammatory response in a dose dependent manner
IE (inflammatory exudate) volume ([2]; rat, 0.5 mg/kg): 3.87 ± 0.27 mL
% inhibition versus controls of IE ([2]; rat, 0.5 mg/kg): 24.8%
IE (inflammatory exudate) volume ([2]; rat, 1 mg/kg): 3.56 ± 0.28 mL
% inhibition versus controls of IE ([2]; rat, 1 mg/kg): 30.9%
IE (inflammatory exudate) volume ([2]; rat, 2 mg/kg): 2.53 ± 0.22 mL
% inhibition versus controls of IE ([2]; rat, 2 mg/kg): 50.9%
IE (inflammatory exudate) volume ([2]; rat, 4 mg/kg): 1.05 ± 0.09 mL
% inhibition versus controls of IE ([2]; rat, 4 mg/kg): 79.6%
ED50 ([3]; Rattus norvegicus, po, read-out: oral ED50 (carrageen edema, extrapolated from AUC), rat, oral, 95% conf. lim. KGS 0.733-1.474, KLS 1.198-1.567): 1.1 mg/kg
anti-inflammatory / anti-edematogenic effect ([3]; rat, oral): dose-dependent
anti-inflammatory activity compared with Ketoprofen Lysine salt ([3]; rat, oral 0.5, 1 and 2 mg/kg): comparable
evolution of paw volume (delta in ml) at 1st hour ([3]; rat, oral, 0.5 mg/kg, controls 0.40 ± 0.02, listed as KGS): 0.28 ± 0.02 mL
evolution of paw volume (delta in ml) at 2nd hour ([3]; rat, oral, 0.5 mg/kg, controls 0.71 ± 0.02, listed as KGS): 0.51 ± 0.03 mL
evolution of paw volume (delta in ml) at 3rd hour ([3]; rat, oral, 0.5 mg/kg, controls 0.87 ± 0.03, listed as KGS): 0.62 ± 0.04 mL
evolution of paw volume (delta in ml) at 4th hour ([3]; rat, oral, 0.5 mg/kg, controls 0.93 ± 0.03, listed as KGS): 0.65 ± 0.04 mL
evolution of paw volume (delta in ml) at 5th hour ([3]; rat, oral, 0.5 mg/kg, controls 0.90 ± 0.04, listed as KGS): 0.62 ± 0.05 mL
evolution of paw volume (delta in ml) at 6th hour ([3]; rat, oral, 0.5 mg/kg, controls 0.84 ± 0.04, listed as KGS): 0.56 ± 0.05 mL
% inhibition vs controls (paw edema AUC) ([3]; rat, oral, 0.5 mg/kg): 30%
% inhibition vs controls (paw edema AUC) ([3]; rat, oral, 0.5 mg/kg, listed as KGS): 30.0%
AUC (mean ± MSE) of increase in paw volume ([3]; rat, oral, 0.5 mg/kg, listed as KGS, 0.5 mg/kg): 2.96 ± 0.15
evolution of paw volume (delta in ml) at 1st hour [3, 6]: 0.23 ± 0.01 mL
evolution of paw volume (delta in ml) at 2nd hour [3, 6]: 0.39 ± 0.02 mL
evolution of paw volume (delta in ml) at 3rd hour [3, 6]: 0.46 ± 0.02 mL
evolution of paw volume (delta in ml) at 4th hour [3, 6]: 0.48 ± 0.02 mL
evolution of paw volume (delta in ml) at 5th hour [3, 6]: 0.45 ± 0.02 mL
evolution of paw volume (delta in ml) at 6th hour [3, 6]: 0.39 ± 0.03 mL
% inhibition vs controls (paw edema AUC) ([3]; rat, oral, 1 mg/kg): 48%
% inhibition vs controls (paw edema AUC) [3, 6]: 48.0%
AUC (mean ± MSE) of increase in paw volume ([3]; rat, oral, 1 mg/kg, listed as KGS, 1 mg/kg): 2.20 ± 0.13
evolution of paw volume (delta in ml) at 1st hour [3, 7]: 0.11 ± 0.02 mL
evolution of paw volume (delta in ml) at 2nd hour [3, 7]: 0.20 ± 0.02 mL
evolution of paw volume (delta in ml) at 3rd hour [3, 7]: 0.26 ± 0.03 mL
evolution of paw volume (delta in ml) at 4th hour [3, 7]: 0.28 ± 0.03 mL
evolution of paw volume (delta in ml) at 5th hour [3, 7]: 0.25 ± 0.03 mL
evolution of paw volume (delta in ml) at 6th hour [3, 7]: 0.16 ± 0.02 mL
% inhibition vs controls (paw edema AUC) ([3]; rat, oral, 2 mg/kg): 72%
% inhibition vs controls (paw edema AUC) [3, 7]: 72.1%
AUC (mean ± MSE) of increase in paw volume ([3]; rat, oral, 2 mg/kg, listed as KGS, 2 mg/kg): 1.18 ± 0.06
active substance concentration in the inflamed site ([4]; injection, vs Ketoprofen sodium salt): much greater than that observed with Ketoprofen sodium salt
kinetic parameters after oral administration ([4]; oral, vs Ketoprofen acid and Ketoprofen sodium salt): significantly different
